In patent US5424456A, “N-arylalkylderivatives of 2-aminomethyl-2,3-dihydro-1,4-benzodioxine and the process of preparation thereof” (Vyzkumny Ustav Pro Farmacii A Biochemii s.p., priority 1991, dated 1995):
Where two headings read alike, the source gives them in different places.

Experiments:
blood pressure [1] = experiment: Hypotensive activity, pentobarbital anaesthesized rabbits; format: in vivo, rabbit; conditions: p.o., 10.0 mg/kg
Description: a) The blood pressure of pentobarbital anaesthesized rabbits was registered invasively in arteria femoralis. The average decrease in systolic (SBP) and diastolic (DBP) blood pressure expressed in per cents of the starting blood pressure level after intravenous and oral administration is shown in Tables 3 and 4.

blood pressure [2] = experiment: Hypotensive activity, pentobarbital anaesthesized dogs; format: in vivo, dog
Description: b) The blood pressure of pentobarbital anaesthesized dogs was registered invasively in arteria femoralis. The average decrease in systolic (SBP) arid diastolic (DBP) blood pressure expressed in per cents of the starting blood pressure level after intravenous and oral administration is shown in Tables 5 and 6.

[3] = system: rat peripheral venous thrombosis; experiment: Antithrombotic activity, rat peripheral venous thrombosis in closed abdominal part of vena cava; format: in vivo; conditions: rats, read-out: statistically significant effective dose (mass of thrombi)
Procedure: The antithrombotic activity of the test compounds was established using the model of rat peripheral venous thrombosis in a closed abdominal part of vena cava. The thrombus was induced by intravenous administration of hypotonic solution of sodium chloride. The thrombus was freed 10 minutes after induction and weighted. The mass of thrombi in control animals was compared to the mass of thrombi of animals administered by the test compound. The statistically significant effective dose for compound VUFB 17951 was 0.5 mg/kg intravenously and 5 mg/kg orally and for the compound VUFB 17959 0.25 mg/kg and 1.0 mg/kg, respectively. The corresponding dose of a standard (Cilostazol, generic name, Merck index, 11th Edition, 2277) was 25 mg/kg orally.

[4] = system: urinary bladder sphincter; experiment: Effect on the opening pressure of the urinary bladder sphincter; format: in vivo, rat; conditions: rats, compared with prazosin or terazosin
[5] = value 4 of 5 (heads 30/60/120/180 min)
[6] = value 5 of 5 (heads 30/60/120/180 min)
[7] = i.v., 0.46 mg/kg, value 1 of 5 (heads 5/30/60/180 min; probably 1 min)
[8] = i.v., 0.46 mg/kg, value 2 of 5 (heads 5/30/60/180 min; probably 5 min)
[9] = i.v., 0.46 mg/kg, value 3 of 5 (heads 5/30/60/180 min; probably 30 min)
[10] = i.v., 0.46 mg/kg, value 4 of 5 (heads 5/30/60/180 min; probably 60 min)
[11] = i.v., 0.46 mg/kg, value 5 of 5 (heads 5/30/60/180 min; probably 180 min)
[12] = i.v., 4.6 mg/kg, value 1 of 5 (heads 5/30/60/180 min; probably 1 min)
[13] = i.v., 4.6 mg/kg, value 2 of 5 (heads 5/30/60/180 min; probably 5 min)
[14] = i.v., 4.6 mg/kg, value 3 of 5 (heads 5/30/60/180 min; probably 30 min)
[15] = i.v., 4.6 mg/kg, value 4 of 5 (heads 5/30/60/180 min; probably 60 min)
[16] = i.v., 4.6 mg/kg, value 5 of 5 (heads 5/30/60/180 min; probably 180 min)

Q: What does the source list for `COc1ccc(C(C#N)(CCCNCC2COc3ccccc3O2)C(C)C)cc1OC` (racemic) [VUFB 17951, 5-(2,3-Dihydro-1,4-benzodioxin-2-ylmethylamino)-2-(3,4-dimethoxyphenyl)-2-isopropyl valeronitrile]?
A: decrease in systolic blood pressure (SBP) (blood pressure [1]; value 3 of 5 (heads 30/60/120/180 min)): -12 per cents; decrease in diastolic blood pressure (DBP) (blood pressure [1]; [5]): -20 per cents; decrease in systolic blood pressure (SBP) (blood pressure [1]; [5]): -13 per cents; decrease in diastolic blood pressure (DBP) (blood pressure [1]; [6]): -17 per cents; decrease in systolic blood pressure (SBP) (blood pressure [1]; [6]): -12 per cents; decrease in diastolic blood pressure (DBP) (blood pressure [2]; [7]): -52 per cents; decrease in systolic blood pressure (SBP) (blood pressure [2]; [7]): -46 per cents; decrease in diastolic blood pressure (DBP) (blood pressure [2]; [8]): -46 per cents; decrease in systolic blood pressure (SBP) (blood pressure [2]; [8]): -47 per cents; decrease in diastolic blood pressure (DBP) (blood pressure [2]; [9]): -40 per cents; decrease in systolic blood pressure (SBP) (blood pressure [2]; [9]): -41 per cents; decrease in diastolic blood pressure (DBP) (blood pressure [2]; [10]): -36 per cents; decrease in systolic blood pressure (SBP) (blood pressure [2]; [10]): -41 per cents; decrease in diastolic blood pressure (DBP) (blood pressure [2]; [11]): -28 per cents; decrease in systolic blood pressure (SBP) (blood pressure [2]; [11]): -26 per cents; decrease in diastolic blood pressure (DBP) (blood pressure [2]; [12]): -53 per cents; decrease in systolic blood pressure (SBP) (blood pressure [2]; [12]): -46 per cents; decrease in diastolic blood pressure (DBP) (blood pressure [2]; [13]): -49 per cents; decrease in systolic blood pressure (SBP) (blood pressure [2]; [13]): -48 per cents; decrease in diastolic blood pressure (DBP) (blood pressure [2]; [14]): -47 per cents; decrease in systolic blood pressure (SBP) (blood pressure [2]; [14]): -42 per cents; decrease in diastolic blood pressure (DBP) (blood pressure [2]; [15]): -42 per cents; decrease in systolic blood pressure (SBP) (blood pressure [2]; [15]): -40 per cents; decrease in diastolic blood pressure (DBP) (blood pressure [2]; [16]): -34 per cents; decrease in systolic blood pressure (SBP) (blood pressure [2]; [16]): -31 per cents; decrease in diastolic blood pressure (DBP) (blood pressure [2]; p.o., 4.6 mg/kg, 15 min): -9 per cents; decrease in systolic blood pressure (SBP) (blood pressure [2]; p.o., 4.6 mg/kg, 15 min): -9 per cents; decrease in diastolic blood pressure (DBP) (blood pressure [2]; p.o., 4.6 mg/kg, 30 min): -11 per cents; decrease in systolic blood pressure (SBP) (blood pressure [2]; p.o., 4.6 mg/kg, 30 min): -11 per cents; decrease in diastolic blood pressure (DBP) (blood pressure [2]; p.o., 4.6 mg/kg, 60 min): -13 per cents; decrease in systolic blood pressure (SBP) (blood pressure [2]; p.o., 4.6 mg/kg, 60 min): -14 per cents; decrease in diastolic blood pressure (DBP) (blood pressure [2]; p.o., 4.6 mg/kg, 120 min): -14 per cents; decrease in systolic blood pressure (SBP) (blood pressure [2]; p.o., 4.6 mg/kg, 120 min): -19 per cents; decrease in diastolic blood pressure (DBP) (blood pressure [2]; p.o., 4.6 mg/kg, 300 min): -19 per cents; decrease in systolic blood pressure (SBP) (blood pressure [2]; p.o., 4.6 mg/kg, 300 min): -24 per cents; minimal effective dose ([3]; iv, intravenously): 0.5 mg/kg; minimal effective dose ([3]; po, orally): 5 mg/kg; duration of action on opening pressure of the urinary bladder sphincter [4]: longer duration of action; lowering of the opening pressure of the urinary bladder sphincter ([4]; corresponding doses): lowered the opening pressure of the urinary bladder sphincter of rats in corresponding doses in the same extent as prazosin
